Source: paper PMC11544891, “Uncovering the Potential Somatic Angiotensin-Converting Enzyme (sACE) Inhibitory Capacity of Peptides from Acheta domesticus: Insights from In Vitro Gastrointestinal Digestion” (Foods, 2024)
Values joined by “and” are separate entries in the source; they are usually repeats but may differ in a detail not shown here. Equal values may be shown once. Read-outs that look alike come from different tables or passages of the source. Residues, ends and D or L forms follow the SMILES beside them. No end group written: not given here.

What was measured:
[1] = test system: spontaneously hypertensive rats (SHR); settings: cited from earlier work; for anti-hypertensive activity in SHR: Table S2, ref [19] of supplement
thoracic aortic rings = test system: thoracic aortic rings; set-up: method as in earlier work; settings: Table S2; ref [19] of supplement; cited from earlier work
sACE = settings: cited from earlier work
[2] = target: T1, somatic angiotensin-converting enzyme (sACE) (Oryctolagus cuniculus, UniProt P12822); test: sACE-inhibition fluorimetric assay (o-Abz-Gly-p-Phe(NO2)-Pro-OH substrate); format: biochemical, rabbit; settings: synthetic peptides; mean ± SD, n = 3; read-out: ACE-Inhibitory Capacity Expressed as IC50 (converted)
T1 construct: the ACE working solution was prepared according to Murray et al. [28] using rabbit lung; from tissue; host or cells: rabbit lung
T1 sequence (P12822 34-1310): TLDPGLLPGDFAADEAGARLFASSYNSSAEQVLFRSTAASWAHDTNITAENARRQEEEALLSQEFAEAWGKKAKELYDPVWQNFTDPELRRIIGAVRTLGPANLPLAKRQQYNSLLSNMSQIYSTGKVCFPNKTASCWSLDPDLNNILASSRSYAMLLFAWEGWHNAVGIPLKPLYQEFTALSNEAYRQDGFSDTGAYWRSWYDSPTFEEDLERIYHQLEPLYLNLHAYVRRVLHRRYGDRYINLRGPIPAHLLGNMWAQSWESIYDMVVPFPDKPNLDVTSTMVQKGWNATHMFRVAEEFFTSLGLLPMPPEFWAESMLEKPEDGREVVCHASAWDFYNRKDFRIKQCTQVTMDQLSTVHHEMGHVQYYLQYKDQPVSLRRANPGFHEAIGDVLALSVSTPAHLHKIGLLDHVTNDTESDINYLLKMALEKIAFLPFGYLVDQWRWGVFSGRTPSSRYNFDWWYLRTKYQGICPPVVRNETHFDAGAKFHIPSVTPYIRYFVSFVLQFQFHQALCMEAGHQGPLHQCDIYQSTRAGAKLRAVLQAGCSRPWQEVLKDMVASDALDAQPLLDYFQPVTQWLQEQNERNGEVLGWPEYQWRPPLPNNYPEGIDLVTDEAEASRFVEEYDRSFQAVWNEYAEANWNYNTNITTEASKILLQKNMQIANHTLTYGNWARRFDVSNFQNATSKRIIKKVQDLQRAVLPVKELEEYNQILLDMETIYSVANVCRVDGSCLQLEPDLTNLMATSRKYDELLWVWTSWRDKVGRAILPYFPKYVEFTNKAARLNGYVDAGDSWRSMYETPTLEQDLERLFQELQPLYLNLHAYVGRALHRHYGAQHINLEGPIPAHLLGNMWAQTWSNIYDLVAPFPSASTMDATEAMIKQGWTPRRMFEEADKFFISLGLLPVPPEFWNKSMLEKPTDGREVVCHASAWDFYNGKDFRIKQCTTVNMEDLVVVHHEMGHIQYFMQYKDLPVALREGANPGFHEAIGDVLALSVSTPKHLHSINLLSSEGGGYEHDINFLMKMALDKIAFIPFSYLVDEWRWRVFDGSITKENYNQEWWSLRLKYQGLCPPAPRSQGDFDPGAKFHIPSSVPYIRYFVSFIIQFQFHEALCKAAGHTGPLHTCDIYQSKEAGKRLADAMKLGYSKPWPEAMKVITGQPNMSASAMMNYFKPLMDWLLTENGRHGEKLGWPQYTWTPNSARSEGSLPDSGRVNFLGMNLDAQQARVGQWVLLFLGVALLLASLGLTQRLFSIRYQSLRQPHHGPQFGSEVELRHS
Method: The sACE-inhibitory capacity was determined using a fluorimetric assay, as reported by Tavares et al., with some modifications. Briefly, the ACE working solution was prepared according to Murray et al. using rabbit lung posteriorly diluted in 0.15 M Tris-base buffer (pH 8.3) with 0.1 mM ZnCl2. A total of 40 µL of the working solution was added to each 96-well microplate well (Porvair, Norfolk, UK), then adjusted to 80 µL by adding distilled water to the blank (B), control (C), or samples (S). The enzyme reaction was started by adding 160 µL of 0.45 mM o-Abz-Gly-p-Phe(NO2)-Pro-OH dissolved in 0.15 M Tris-base buffer (pH 8.3) containing 1.125 M NaCl, and the mixture was incubated at 37 °C for 30 min. The fluorescence generated was measured using a multiscan microplate fluorimeter (FLUOstar optima, BMG Labtech, Ortenberg, Germany) with excitation and emission wavelengths of 350 and 420 nm, respectively. Data were processed with the software FLUOstar control (version 1.32 R2, BMG Labtech, Ortenberg, Germany). The assay was performed in triplicate, and the resulting data were subjected to a nonlinear fit using GraphPad Prism 5 to determine the IC50 (half maximal inhibitory concentration) values. The resulting data (n = 3) were expressed as the mean ± SD (standard deviation).

[3] = Table S2, T. molitor larvae, ref [21] of supplement, read-out: In Vitro (IC50)
[4] = Table S2, ref [3] of supplement, read-out: In Vitro (IC50)
[5] = peptides found in fermented milks, read-out: IC50 values for sACE
[6] = Table S2, ref [17] of supplement, read-out: In Vitro (IC50)
[7] = Table S2, peptides from in vitro digestion (pepsin, pancreatin) of edible insects, ref [14] of supplement

Ala-Val-Phe [AVF]
anti-hypertensive activity in SHR [1]: anti-hypertensive activity
inhibitory activity in thoracic aortic rings from male Wistar rats (thoracic aortic rings): no inhibitory activity
IC50 (sACE; Table S2, ref [18] of supplement, read-out: In Vitro (IC50)): 2120 µM
IC50 (sACE; Table S2, synthesized peptides, ref [19] of supplement, read-out: In Vitro (IC50)): 1370 to 1430 µM

GNPWM
IC50 (sACE; Table S2, ref [10] of supplement, read-out: In Vitro (IC50)): 21.7 µM

IIAPPER [literature peptide from Gryllodes sigillatu digestion]
IC50 (sACE): 6.93 µg/mL

AVFPSIVGR [literature peptide from Apis mellifera pupae hydrolysate]
IC50 (sACE; read-out: IC50): 6.64 µM

YETGNGIK [literature peptide from Schistocerca gregaria digestion]
IC50 (sACE): 3.25 µg/mL

GAMVVH
IC50 (sACE; Table S2, ref [7] of supplement, read-out: In Vitro (IC50)): 19.4 ± 0.21 µM

QGLGY
IC50 (sACE; [3]): 264 µM

PPVLVFV [literature peptide from Apis mellifera pupae hydrolysate]
IC50 (sACE; [4]): 47.8 µM

YDDGSYKPH [literature peptide from Tenebrio molitor larvae digestion]
IC50 (sACE): 5.81 µg/mL

PIVCF [PIVCF]
IC50 [2]: 4.64 µM and 4.63 µM

CC[C@H](C)[C@H](NC(=O)[C@@H](N)CCC(N)=O)C(=O)N[C@H](C(=O)N[C@@H](Cc1c[nH]c2ccccc12)C(=O)O)C(C)C [QIVW] (H-QIVW-OH)
IC50 [2]: 140 µM

VPP
IC50 (sACE; [5]): 9 µM

IPP
IC50 (sACE; [5]): 5 µM

IIIGW [IIIGW]
IC50 [2]: 54.6 µM and 54.5 µM

FFGT
IC50 (sACE; [6]): 19.4 ± 1.7 µM

NYVADGLG [literature peptide from Tenebrio molitor larvae digestion]
In Vitro (IC50) (sACE; [7]): 12.09 ± 0.08 µg/mL

ASL
IC50 (sACE; Table S2, ref [5] of supplement, read-out: In Vitro (IC50)): 102 µM

YAN
In Vitro (IC50) (sACE; Table S2, T. molitor larva flour, alcalase, ref [20] of supplement): 17 µg/mL
IC50 (sACE; [3]): 172 µM

LLKPY
IC50 (sACE; Table S2, ref [2] of supplement, read-out: In Vitro (IC50)): 54.9 µM

HILG
IC50 (sACE; [3]): 2820 µM

CC(C)[C@H](NC(=O)[C@@H](N)CC(=O)O)C(=O)N[C@@H](Cc1c[nH]c2ccccc12)C(=O)O [DVW] (H-Asp-Val-Trp-OH)
IC50 [2]: 195 µM and 196 µM

AIGVGAIER [literature peptide from Schistocerca gregaria digestion]
In Vitro (IC50) (sACE; [7]): 14.43 ± 0.02 µg/mL

PGKVHIT [literature peptide from Apis mellifera pupae hydrolysate]
IC50 (sACE; [4]): 224 µM

AVQPCF [AVQPCF]
IC50 [2]: 3.69 µM

Val-Phe [VF]
anti-hypertensive activity in SHR [1]: anti-hypertensive activity
in vivo antihypertensive capacity [1]: demonstrated in vivo antihypertensive capacity
inhibitory activity in thoracic aortic rings from male Wistar rats (thoracic aortic rings): inhibitory activity
IC50 (sACE; Table S2, […], ref [19] of supplement, read-out: In Vitro (IC50)): 120 to 144 µM

KHV
IC50 (sACE; Table S2, ref [8] of supplement, read-out: In Vitro (IC50)): 12.8 µM

AAAPVAVAK [literature peptide from Tenebrio molitor larvae digestion]
IC50 (sACE): 8.31 µg/mL

VAPEEHPV [literature peptide from Gryllodes sigillatu digestion]
In Vitro (IC50) (sACE; [7]): 18.85 ± 0.05 µg/mL

LSRVP
IC50 (sACE; [6]): 52.7 ± 4.04 µM

RYL
IC50 (sACE; peptide from Bombyx mori hydrolysates, read-out: IC50): 3.31 µM

FDPFPK (LCFDPFPK) [literature peptide from Schistocerca gregaria digestion]
In Vitro (IC50) (sACE; [7]): 79.25 ± 0.04 µg/mL

AGDDAPR [literature peptide from Tenebrio molitor protein concentrate digestion]
IC50 (sACE): 8.34 µg/mL

LAPSTIK [literature peptide from Gryllodes sigillatu digestion]
In Vitro (IC50) (sACE; [7]): 11.14 ± 0.08 µg/mL

KVEGDLK [literature peptide from Gryllodes sigillatu digestion]
IC50 (sACE): 3.67 µg/mL

APPPKK
In Vitro (IC50) (sACE; Table S2, ref [9] of supplement): 47 µg/mL

NIKY
IC50 (sACE; [3]): 52.2 µM

CAIAW [CAIAW]
IC50 [2]: 6.56 µM and 6.55 µM

GKDAVIV [literature peptide from Schistocerca gregaria digestion]
In Vitro (IC50) (sACE; [7]): 12.82 ± 0.02 µg/mL
